In publication PMC4815068, “A phase I study of high-dose rosuvastatin with standard dose erlotinib in patients with advanced solid malignancies” (Journal of Translational Medicine, 2016):
“Also recorded” adds a separate entry of the source. Where two headings read alike, the source gives them in different places. Marks after values point to notes of the source that are not given here.

Assays:
[1] = Pharmacokinetic analysis of serum levels by LC/MS/MS
Procedure: Pharmacokinetic analysis of erlotinib serum levels was undertaken at day 6 (erlotinib alone) and at day 14 (erlotinib and 1 mg/kg/day rosuvastatin treatments) and rosuvastatin at the day 14 timepoint of cycle 1 in 6 study patients (Schedule A). On day 6 and 14 serum erlotinib levels and day 14 serum rosuvastatin levels were determined at 2 h intervals for a full 24 h after drug treatments. The analysis of rosuvastatin and erlotinib was performed by a validated liquid chromatography mass spectrometry/mass spectrometry (LC/MS/MS) method. Protein precipitation (plasma: 50/50 acetonitrile/[…] 1:2) was used for sample preparation before injecting to HPLC for separation. Rosuvastatin, erlotinib and internal standard (IS), 6,7-Dimethyl-2,3-di(2-pyridyl)-quinoxaline (DMDPQ) was eluted by HPLC (Accela, Thermo) using a gradient mobile phase [0.2 % Formic acid (V:V), and 100 % methanol]. […] Detection was done by tandem Mass spectrometer (TSQ Quantum Access MAX, Thermo) with electrospray ionization in positive mode. The multiple reaction monitoring (MRM) was be used to detect specific precursor ion to product ion transitions for rosuvastatin (m/s 482.3/258.1), erlotinib (m/s 394.3/336.2), and IS (m/s 313.2/91.2), respectively. Xcalibur and TSQ Tune master software (Thermo) was used as the system controller and integrator.

[2] = system: patients with solid tumors; details: weekly regimen, lovastatin monotherapy; cited from earlier work
recurrent SCC patients = details: cited from earlier work
[3] = On-study laboratory evaluations (CPK, cholesterol, LDL, HDL); assay type: in vivo, human
Procedure: Patients had weekly laboratory evaluations for hematogical, hepatic and renal functions and biochemical changes including creatine and creatine phosphokinase (CPK) and fasting total cholesterol, HDL and LDL during cycle 1 and at the start of each subsequent cycle. Physical examinations occurred at the start of each cycle and radiological tumor evaluations were completed after every 2 cycles. Tumor response was assessed using response evaluation criteria in solid tumors (RECIST) criteria.

CYP3A4 = details: cited from earlier work
[4] = system: patients with advanced solid tumours
Procedure: This was a single-center, phase I open-label study to determine the safety and RPTD of rosuvastatin in combination with the standard clinical dose of erlotinib (150 mg/day) in patients with advanced solid tumours. […] Eight cohorts from 1 to 8 mg/kg/day rosuvastatin given concurrently with standard dose erlotinb in 28-day cycles were planned. […] Patients received therapy until evidence of disease progression, the development of serious or unmanageable adverse events (SAE), or until study withdrawal. Clinically or radiological documented disease and an ECOG performance status of 0, 1 or 2 was also required. All study patients had adequate hematogical, hepatic and renal functions at baseline. Adequate hematological function was defined as hemoglobin ≥90 g/L, absolute granulocyte count ≥1.5 × 10^9/L and platelet counts ≥100 × 10^9/L. Biochemical parameters for hepatic function included; total bilirubin <1.5× the upper limit of normal (ULN) and ALT/AST <1.5× ULN. […] Any anticholesterol agents were discontinued at least 7 days prior to starting the trial.
Erlotinib was provided by Roche Canada and was administered orally in tablet form at a standard daily dose of 150 mg. […] The starting dose of rosuvastatin was 1 mg/kg/day with the dose of rosuvastatin increasing in a step-wise manner in escalating doses of 1 mg/kg/day. […] During cycle-1 of the dose escalation, treatment with rosuvastin was administered as follows: 1 week off, then daily for 2 weeks, then 1 week off. […] Doses were rounded to the nearest 5 mg since rosuvastatin is available in 5, 10, 20 and 40 mg tablets (purchased from AstraZeneca, Canada). Oral administration of rosuvastatin was once daily if daily dose was <80 mg, twice if 81–160 mg, three times a day if 161–240 mg and four times a day if >240 mg daily dose. […] No prophylactic medications were supplied. Standard supportive care medications were allowed. Oral supplementation of ubiquinone at 60 mg po QID was initiated if patient developed grade 3 or 4 muscle toxicity and continued until recovery to baseline.
A 3 + 3 dose escalation phase I study design was used, with 3 patients planned at each cohort. […] All 3 patients at a given dose level needed to complete the first cycle of treatment without suffering DLT before new patients were enrolled at the next dose level. The lead patient at each new dose level completed the first cycle of treatment before other patients were enrolled at the same dose level. If 1/3 initial patients at each dose experienced a DLT, then the treatment level was expanded to at least 6 patients. […] There was no dose escalations allowed within individual patients. If >2 patients at any dose level experienced DLT, then that level was considered to have exceeded the maximal tolerated dose (MTD), and the level immediately preceding that level was designated as MTD and RPTD.

advanced solid tumours = experiment: Tumor response (RECIST) and days on study; assay type: in vivo, human
Procedure: Physical examinations occurred at the start of each cycle and radiological tumor evaluations were completed after every 2 cycles. Tumor response was assessed using response evaluation criteria in solid tumors (RECIST) criteria. […] In these cases, the patient went off protocol treatment. […] Similar strategies were employed for other toxicities as well. […] This study was conducted according to Good Clinical Practice.

NSCLC patients = system: NSCLC patients; set-up: method as in PMID 21411446; details: hypercholesterolemia dose of simvastatin daily with standard dose gefitinib, SCC patients; cited from earlier work
[5] = concurrent rosuvastatin + erlotinib

C#Cc1cccc(Nc2ncnc3cc(OCCOC)c(OCCOC)cc23)c1 [erlotinib]
Tmax ([1]; erlotinib (+rosuvastatin 1 mg/kg/day) (day 14), individual Schedule A patients 14-18): 6 h | Tmax ([1]; erlotinib alone (day 6), 150 mg/day, individual Schedule A patients 13-18): 6 h | Half-life of erlotinib on addition of rosuvastatin ([1]; human, in vivo): unaffected | half-life ([1]; human, in vivo, 150 mg/day): 1090 min | half-life ([1]; human, in vivo, 150 mg/day, t 1/2, erlotinib alone (day 6), 150 mg/day, individual Schedule A patients 13-18): 1540 min | half-life ([1]; human, in vivo, t1/2): 1460 min | Erlotinib AUC, day 6 (alone) versus day 14 (+rosuvastatin) ([1]; in vivo): did not differ significantly | Erlotinib Cmax and Tmax, day 6 versus day 14 (+rosuvastatin) ([1]; in vivo): similar | Plasma erlotinib levels on addition of rosuvastatin ([1]; in vivo): unaffected

CC[C@H](C)C(=O)O[C@H]1C[C@@H](C)C=C2C=C[C@H](C)[C@H](CC[C@@H]3C[C@@H](O)CC(=O)O3)[C@H]21 [lovastatin]
Clinical efficacy as an anticancer therapy [2]: failed to demonstrate clinical efficacy | DLT of lovastatin (recurrent SCC patients; prolonged oral administration, recurrent SCC): reversible muscle toxicity | Patients with disease stabilization lasting greater than 3 months (recurrent SCC patients; single agent lovastatin, SCC patients): 23% | Dose-limiting muscle toxicities greater than grade 2 in severity (recurrent SCC patients; single agent lovastatin, of the 5 patients with muscle DLT): 2 | Patients with reversible dose-limiting muscle toxicities (recurrent SCC patients; single agent lovastatin, of the 24 patients enrolled): 5 patients

CC(C)c1nc(N(C)S(C)(=O)=O)nc(-c2ccc(F)cc2)c1/C=C/[C@@H](O)C[C@@H](O)CC(=O)O [rosuvastatin]
Patients with elevated CPK levels during rosuvastatin treatments ([3]; 1 mg/kg/day dose + erlotinib): 1 out of 16 | Patients with elevated CPK levels during rosuvastatin treatments ([3]; 2 mg/kg/day dose (Cohort 2) + erlotinib): 4 out of the 8 | Serum CPK level in the patient with rhabdomyolysis ([3]; day 28 (erlotinib and rosuvastatin 2 mg/kg/day), increased from 60 U/L): over 2000 U/L | Change in serum cholesterol, LDL or HDL levels ([3]; rosuvastatin + erlotinib, even in patients on study greater than 170 days): did not result in significant changes | CYP3A4 substrate (CYP3A4; ref 32): non-CYP3A4 substrate | CYP3A4 substrate (CYP3A4; ref 33): not a CYP3A4 substrate | Anorexia, ≥Grade 2 ([4]; human, in vivo): 62.5% | Anxiety, ≥Grade 2 ([4]; human, in vivo): 4.2% | Diarrhea, ≥Grade 2 ([4]; human, in vivo): 20.8% | Fatigue, ≥Grade 2 ([4]; human, in vivo): 75.0% | Muscle weakness, ≥Grade 2 ([4]; human, in vivo): 41.7% | Myalgia, ≥Grade 2 ([4]; human, in vivo): 29.2% | Nausia, ≥Grade 2 ([4]; human, in vivo): 16.7% | Rash, ≥Grade 2 ([4]; human, in vivo): 29.2% | Rhabdomyolysis, ≥Grade 2 ([4]; human, in vivo): 4.2^a % | Vomiting, ≥Grade 2 ([4]; human, in vivo): 16.7% | Weight loss, ≥Grade 2 ([4]; human, in vivo): 16.7% | Patients who developed rhabdomyolysis (study related death) ([4]; rosuvastatin 2 mg/kg/day + erlotinib, 8 evaluable patients): single patient out of 8 | Patients with durable stable disease, NSCLC (advanced solid tumours; [5]): 2/4 | Patients with durable stable disease, genitourinary (GU) cancer (vaginal squamous epithelial carcinoma) (advanced solid tumours; [5]): 1/4 | Patients with durable stable disease, pancreatic cancer (neuroendocrine tumour) (advanced solid tumours; [5]): 1/2 | Evaluable patients on study for greater than 170 days (advanced solid tumours; concurrent rosuvastatin + erlotinib (Cohorts 1, 2 and Schedule A)): 4/16 | Patients on study for greater than 275 days (advanced solid tumours; concurrent rosuvastatin + erlotinib, 16 evaluable): 3 patients | Durable stable disease for more than 170 days (rate) (advanced solid tumours; concurrent rosuvastatin + erlotinib, evaluable for response n = 16): 25% | Patients with disease stabilization greater than 6 months (advanced solid tumours; concurrent treatment regimens, rosuvastatin + erlotinib): 4/16 | Objective responses (RECIST) (advanced solid tumours; rosuvastatin + erlotinib, 22 evaluable patients): No objective responses; also recorded: absence of objective responses

CCC(C)(C)C(=O)O[C@H]1C[C@@H](C)C=C2C=C[C@H](C)[C@H](CC[C@@H]3C[C@@H](O)CC(=O)O3)[C@H]21 [simvastatin]
Response rates and PFS compared to gefitinib alone (NSCLC patients): higher response rates and longer PFS
